Experimental data reported in patent US20240122214A1, “COMPOSITIONS, METHOD OF MAKING AND METHOD OF USE THEREOF” (EPC NATURAL PRODUCTS CO., LTD, priority 2014, published 2024).
Where two headings read alike, the source gives them in different places.

Experiments:
[1] = test system: glucose transport across the Caco-2 cell monolayer; test: Glucose transport assay in Caco-2 trans-well model (Example 1); format: cell-based; conditions: Homo sapiens, 13.5 g/L glucose apical, phloretin 100 mg/L, read-out: Glucose transport compared to untreated control [% of control]
Procedure: Caco-2 cells were seeded on 0.4 μm trans-well inserts for monolayer formation and fast differentiation. On day 5, glucose transport across the cell monolayer was performed. Therefore, cell culture medium containing 13.5 g/L glucose and 1 g/L xylitol with or without the indicated dilutions of extracts or phloretin (100 mg/L) was placed as donor solution onto the apical compartment. Samples were collected from the basolateral compartment (HEPES buffer) after 0, 0.5, 1, 1.5, and 2 hours. Glucose concentrations of the samples were measured by HPLC.
Caco-2 cells were seeded on 0.4 1.tm trans-well inserts for monolayer formation and fast differentiation (enterocyte differentiation medium). On day 5, glucose transport across the cell monolayer was performed. Therefore, cell culture medium containing 13.5 g/L glucose and 1 g/L xylitol with or without the indicated concentrations of rubusoside plant extract or phloretin was placed as donor solution onto the apical compartment. Samples were collected from the basolateral compartment (HEPES buffer) after 0, 0.5, 1, 1.5, and 2 hours. Glucose and xylitol concentrations of the samples were measured by HPLC. Cell layer integrity was confirmed by TEER measurements (Millicell ERS-2 Voltometer) at each sampling time point.

[2] = test system: glucose transport across the Caco-2 cell monolayer; test: Glucose transport assay in Caco-2 trans-well model (Example 2); format: cell-based, Human; conditions: 0-3 h, result in words
Procedure: Caco-2 cells were seeded on 0.4 μm trans-well inserts for monolayer formation and fast differentiation. On day 5, glucose transport across the cell monolayer was performed. […] Samples were collected from the basolateral compartment (HEPES buffer) after 0, 0.5, 1, 1.5, 2 and 3 hours. Glucose concentrations of the samples were measured by HPLC. […] Error bars are based on the standard error of the mean (n=2). *p<0.05 indicates a significant difference from the control (two-way ANOVA, Tukey's multiple comparison test).
Caco-2 (165,000 cells/insert) cells were seeded on 0.4 μm trans-well inserts for monolayer formation and fast differentiation (enterocyte differentiation medium). On day 5, glucose transport across the cell monolayer was performed. […] Samples were collected from the basolateral compartment (HEPES buffer) after 0, 0.5, 1, 1.5, 2 and 3 hours. Glucose and xylitol concentrations of the samples were measured by HPLC. Cell layer integrity was confirmed by TEER measurements (Millicell ERS-2 Voltometer) at each sampling time point.

Caco-2 cell layers = test: Caco-2 barrier integrity: TEER and xylitol passage (Example 2); format: cell-based, Human; conditions: 1 g/L xylitol reference
Procedure: Caco-2 cells were seeded on 0.4 μm trans-well inserts for monolayer formation and fast differentiation. […] Therefore, cell culture medium containing 13.5 g/L glucose and 1 g/L xylitol with or without the indicated concentrations of rubusoside plant extract or phloretin was placed as donor solution onto the apical compartment. The effect on barrier integrity was analyzed by measuring TEER after 0, 0.5, 1, 1.5, 2 and 3 hours (Panels A, C and E) and by including xylitol as a reference substance for the paracellular permeability of the cell layer (Panels B, D and F). Xylitol concentrations of the samples taken were measured by HPLC. Error bars are based on the standard error of the mean (n=2).
Caco-2 (165,000 cells/insert) cells were seeded on 0.4 μm trans-well inserts for monolayer formation and fast differentiation (enterocyte differentiation medium). […] Briefly, cell culture medium containing 13.5 g/L glucose and 1 g/L xylitol with or without the indicated concentrations of rubusoside plant extract or phloretin was placed as donor solution onto the apical compartment. Samples were collected from the basolateral compartment (HEPES buffer) after 0, 0.5, 1, 1.5, 2 and 3 hours. Glucose and xylitol concentrations of the samples were measured by HPLC. Cell layer integrity was confirmed by TEER measurements (Millicell ERS-2 Voltometer) at each sampling time point.

[3] = depends on the tested concentration compared with sucrose; cited from earlier work

Molecule | activity at 100 µg/mL ([1]; 0.5 h) [%] | activity at 100 µg/mL ([1]; 1.0 h) [%] | inhibitory effect on glucose transport [2] | xylitol permeability of treated cell layers (Caco-2 cell layers) | times sweeter than sucrose [3]
O=C(CCc1ccc(O)cc1)c1c(O)cc(O)cc1O [Phloretin, phloretin] | 36 | 54 | strongly reduced glucose absorption | highest | 
O=S(=O)([O-])NC1CCCCC1.[Na+] [sodium cyclamate] |  |  |  |  | about 30 times
OC[C@H]1O[C@H](O[C@]2(CCl)O[C@H](CCl)[C@@H](O)[C@@H]2O)[C@H](O)[C@@H](O)[C@H]1Cl [sucralose] |  |  |  |  | about 600 times
thaumatin |  |  |  |  | about 2000 times
